In US8034811B2, “Hydroxamic acid esters and pharmaceutical use thereof” (Leo Pharma A/S, priority 2003, dated 2011):

The molecules below were run against T1, human intracellular domain of KDR (VEGF Receptor-2) (Homo sapiens, UniProt P35968) (assay: In vitro KDR kinase assay). Settings: IC50 as molar concentration; GST-KDR-cyt, substrate phospholipase Cγ, ATP 100 μM, 30 min room temperature, time-resolved fluorometry.
T1 construct: A fusion protein containing the intracellular domain (amino acids 793 to 1357) of the KDR and N-terminally tagged to GST; made in house; host or cells: Sf9 insect cells (baculovirus, pDEST20) for GST-KDR-cyt; E. coli BL21 (pGEX-4T-1) for GST-PLCγ
T1 sequence (P35968 794-1356 limits assumed): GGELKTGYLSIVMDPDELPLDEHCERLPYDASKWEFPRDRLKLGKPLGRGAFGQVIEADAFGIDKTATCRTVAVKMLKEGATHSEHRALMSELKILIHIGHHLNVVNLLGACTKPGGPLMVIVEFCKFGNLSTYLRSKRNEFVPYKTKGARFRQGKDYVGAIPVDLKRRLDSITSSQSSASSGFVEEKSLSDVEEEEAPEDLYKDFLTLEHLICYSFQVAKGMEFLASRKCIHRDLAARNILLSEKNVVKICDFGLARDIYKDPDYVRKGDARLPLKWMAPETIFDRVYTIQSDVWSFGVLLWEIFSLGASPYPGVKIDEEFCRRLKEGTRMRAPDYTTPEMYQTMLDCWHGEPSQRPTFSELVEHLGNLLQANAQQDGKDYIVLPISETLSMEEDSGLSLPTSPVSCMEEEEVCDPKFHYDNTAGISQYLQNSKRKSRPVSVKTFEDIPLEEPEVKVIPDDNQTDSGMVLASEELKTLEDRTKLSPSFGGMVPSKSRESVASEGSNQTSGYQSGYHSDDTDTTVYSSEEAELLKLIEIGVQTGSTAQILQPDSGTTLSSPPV
Assay type: biochemical
Procedure: The intracellular domain of the KDR receptor was used in the in vitro KDR assay. This domain contains the tyrosine kinase domain of KDR, and when expressed in Sf9 cells, this domain is constitutively active i.e. the kinase domain is phosphorylated on tyrosine residues.
The compounds to be tested were dissolved in DMSO at 10 mM, stored at −20° C. and protected from light. The maximum concentration of DMSO in the in vitro assay was 0.1%. Control samples received the same concentration of solvent as the samples treated with the test compounds.
For the kinase assays, black 96 wells MaxiSorp microtiter plates were coated by an overnight incubation with 100 μl/well of a 2.5 μg/ml solution of phospholipase Cγ in TBS buffer (40 mM Tris-HCl, pH 7.4, 20 mM Mg(C2H3O2)2, 0.02% NaN3) at 4° C. The plates were washed 3 times with TBS buffer containing 0.1% Tween-20, and the residual binding sites were masked by incubation with 1% BSA in TBS buffer containing 0.1% Tween-20 for 1 h. The plates were washed again and the test compounds were added at final concentrations up to 10 μM, together with ATP at the final concentration of 100 μM in 50 μl TBS buffer/well. Then, 50 μl of the human intracellular domain of KDR (VEGF Receptor-2) finally diluted 3000-3500 fold were added and were incubated for 30 min at room temperature. The plates were washed and 100 μl of the Europium labelled PY-20 anti-phosphotyrosine antibody (Wallac, FIN) were incubated in each well at the concentration of approximately 114 ng/ml for 2 h. Then, the plates were washed and 100 μl of enhancer solution (Wallac, FIN) were incubated in each well for 5 min in the dark. The plates were read in a Victor 1420 multilabel counter, using a Europium protocol for time-resolved fluorometry (Wallac, FIN): excitation 340 nm, emission 615 nm, sample pulse cycle 400 μs. Fluorescence was measured for 400 μs between flashes after a delay time of 400 μs. The background measured in the absence of enzyme was subtracted from all samples. The molar concentrations that inhibited 50% of the maximal enzymatic activity (IC50) were calculated from the dose-response curve, by fitting a straight line between the two concentrations immediately above and below the 50% inhibition point (i.e. by solving the equation y=a+bx).

Row | Compound | IC50 [nM]
1 | O=C(NOCc1ccccc1C#CCO)c1ccccc1NCc1ccncc1 [Compound 52, N-[2-(3-Hydroxy-prop-1-ynyl)-benzyloxy]-2-[(pyridin-4-ylmethyl)-amino]-benzamide] | 63.1
2 | O=C(NOCC1CCCCC1)c1ccccc1NCc1ccncc1 [Compound 120, N-Cyclohexylmethoxy-2-[(pyridin-4-ylmethyl)-amino]-benzamide] | 39.8
3 | O=C(NOCc1cccc(Cl)c1)c1ccccc1NCc1ccncc1 [Compound 11, N-(3-Chloro-benzyloxy)-2-[(pyridin-4-ylmethyl)-amino]-benzamide] | 126
4 | CNC(=O)Nc1cc(CNc2ccccc2C(=O)NOCC2CCCCO2)ccn1 (centres unmarked) [compound 245] | 7.94
5 | O=C(NOCc1ccccc1F)c1ccccc1NCc1ccncc1 [Compound 20, N-(2-Fluoro-benzyloxy)-2-[(pyridin-4-ylmethyl)-amino]-benzamide] | 31.6
6 | O=C(NOCc1ccccc1)c1cccnc1NCc1ccncc1 [Compound 33, N-Benzyloxy-2-2-[(pyridin-4-ylmethyl)-amino]-nicotinamide] | 100
7 | O=C(NOCC1CCOCC1)c1ccccc1NCc1ccnc2ccccc12 [compound 234] | 63.1
8 | CN(C)CCNC(=O)c1cccc(CONC(=O)c2ccccc2NCc2ccncc2)c1 [Compound 96, N-[3-(2-dimethylaminoethylcarbamoyl)-benzyloxy]-2-[(pyridin-4-ylmethyl)-amino]-benzamide] | 79.4
9 | O=C(NOCc1ccccc1-c1cccs1)c1ccccc1NCc1ccncc1 [Compound 98, 2-[(Pyridin-4-ylmethyl)-amino]-N-(2-thiophen-2-yl-benzyloxy)-benzamide] | 39.8
10 | O=C(CC1NC(=O)NC1=O)Nc1cc(CNc2ccccc2C(=O)NOCC2CCCC2)ccn1 (centres unmarked) [compound 228] | 6.31
11 | O=C(NOCc1cccc2ccccc12)c1ccccc1NCc1ccncc1 [Compound 100, N-(Naphthalen-1-ylmethoxy)-2-[(pyridin-4-ylmethyl)-amino]-benzamide] | 63.1
12 | O=C(NOC[C@H]1CC[C@H](CO)CC1)c1ccccc1NCc1ccncc1 [Compound 130, N-(trans-4-Hydroxymethyl-cyclohexylmethoxy)-2-[(pyridin-4-ylmethyl)-amino]-benzamide] | 50.1
13 | O=C(NOCc1cccc(C#CCO)c1)c1ccccc1NCc1ccncc1 [Compound 50, N-[3-(3-Hydroxy-prop-1-ynyl)-benzyloxy]-2-[(pyridin-4-ylmethyl)-amino]-benzamide] | 63.1
14 | O=C(NOCc1ccccc1)c1ccccc1NCc1ccnc2ccccc12 [compound 230] | 25.1
15 | CC(C)CCONC(=O)c1ccccc1NCc1ccncc1 [Compound 118, N-(3-Methyl-butoxy)-2-[(pyridin-4-ylmethyl)-amino]-benzamide] | 15.8
16 | O=C(NOCc1c(F)cccc1C(F)(F)F)c1ccccc1NCc1ccncc1 [Compound 60, N-(2-Fluoro-6-trifluoromethyl-benzyloxy)-2-[(pyridin-4-ylmethyl)-amino]-benzamide] | 20
17 | COc1ccc(CNc2ccccc2C(=O)NOCc2ccc(C#N)cc2OC)cn1 [compound 235] | 63.1
18 | COc1cc(C#N)ccc1CONC(=O)c1ccccc1NCc1ccncc1 [Compound 79, N-(4-Cyano-2-methoxy-benzyloxy)-2-[(pyridin-4-ylmethyl)-amino]-benzamide] | 39.8
19 | N#Cc1ccc(CONC(=O)c2ccccc2NCc2ccncc2)cc1 [Compound 27, N-(4-cyano-benzyloxy)-2-[(pyridin-4-ylmethyl)-amino]-benzamide] | 12.6
20 | Nc1ccccc1CONC(=O)c1ccccc1NCc1ccncc1 [Compound 85, N-(2-Amino-benzyloxy)-2-[(pyridin-4-ylmethyl)-amino]-benzamide] | 50.1
21 | O=C(NOCc1ccc(C(F)(F)F)cc1)c1ccccc1NCc1ccncc1 [Compound 6, N2-[(Pyridin-4-ylmethyl)-amino]-N-(4-trifluoromethyl-benzyloxy)-benzamide] | 63.1
22 | N#Cc1ccc(CONC(=O)c2cccnc2NCc2ccncc2)c(F)c1 [Compound 158, N-(4-Cyano-2-fluoro-benzyloxy)-2-[(pyridin-4-ylmethyl)-amino]-nicotinamide] | 79.4

Row | Compound | IC50 [nM]
23 | O=C(NOCc1cccc(C(F)(F)F)c1)c1ccccc1NCc1ccncc1 [Compound 4, 2-[(Pyridin-4-ylmethyl)-amino]-N-(3-trifluoromethyl-benzyloxy)-benzamide] | 200
24 | O=C(NOCC12CC3CC(CC(C3)C1)C2)c1ccccc1NCc1ccncc1 [Compound 132, N-(Adamantan-1-ylmethoxy)-2-[(pyridin-4-ylmethyl)-amino]-benzamide] | 100
25 | COc1ccccc1CONC(=O)c1ccccc1NCc1ccncc1 [Compound 64, N-(2-Methoxy-benzyloxy)-2-[(pyridin-4-ylmethyl)-amino]-benzamide] | 50.1
26 | N#Cc1ccc(CONC(=O)c2ccccc2NCc2ccc(=O)[nH]c2)cc1 [compound 247] | 50.1
27 | O=C(NOCc1cc2c(cc1Cl)OCO2)c1ccccc1NCc1ccncc1 [Compound 71, N-(6-Chloro-benzo[1,3]dioxol-5-ylmethoxy)-2-[(pyridin-4-ylmethyl)amino]-benzamide] | 25.1
28 | O=C(NOCc1ccc(F)cc1)c1ccccc1NCc1ccc2occc2c1 [Compound 199, 2-[(Benzofuran-5-ylmethyl)-amino]-N-(4-fluoro-benzyloxy)-benzamide] | 50.1
29 | CC(C)(C)CONC(=O)c1ccccc1NCc1ccncc1 [Compound 116, N-(2,2-Dimethyl-propoxy)-2-[(pyridin-4-ylmethyl)-amino]-benzamide] | 39.8
30 | O=C(NOCc1ccccc1)c1ccccc1NCc1ccncc1 [Compound 1, N-Benzyloxy-2-[(pyridin-4-ylmethyl)-amino]-benzamide] | 79.4
31 | O=C(NOCCC1CC1)c1ccccc1NCc1ccncc1 [Compound 125, N-(2-Cyclopropyl-ethoxy)-2-[(pyridin-4-ylmethyl)-amino]-benzamide] | 39.8
32 | N#Cc1ccc(CONC(=O)c2ccccc2NCc2ccnc(NC(=O)CO)c2)cc1 [compound 224] | 6.31
33 | O=C(NOCC1CCCC1)c1ccccc1NCc1ccnc(NC(=O)C2CC2)c1 [compound 227] | 5.01
34 | COc1ccc(CNc2ncccc2C(=O)NOCc2ccc(OC)cc2)cc1 [Compound 35, 2-(4-Methoxy-benzylamino)-N-(4-methoxy-benzyloxy)-nicotinamide] | 1000
35 | N#Cc1ccc(CONC(=O)c2ccccc2NCc2ccnc3ccccc23)cc1 [compound 231] | 39.8
36 | CO[C@@H]1CCC[C@H](CONC(=O)c2ccccc2NCc2ccncc2)C1 (stereo in doubt) [Compound 131, N-(3-Methoxy-cyclohexylmethoxy)-2-[(pyridin-4-ylmethyl)-amino]-benzamide] | 39.8
37 | COc1ccc(CONC(=O)c2ccccc2NCc2ccncc2)cc1 [Compound 7, N-(4-Methoxy-benzyloxy)-2-[(pyridin-4-ylmethyl)-amino]-benzamide] | 39.8
38 | O=C(NOCC1CC1)c1ccccc1NCc1ccncc1 [Compound 114, N-Cyclopropylmethoxy-2-[(pyridin-4-ylmethyl)-amino]-benzamide] | 100
39 | O=C(NCCCO)c1cc(CNc2ccccc2C(=O)NOCC2CCCC2)ccc1F [Compound 188, 5-[(2-Cyclopentylmethoxycarbamoyl-phenylamino)-methyl]-2-fluoro-N-(3-hydroxypropyl)-benzamide] | 79.4
40 | CC(=O)OCC(=O)Nc1cc(CNc2ccccc2C(=O)NOCC2CCCC2)ccn1 [compound 223] | 31.6
41 | CC(ONC(=O)c1ccccc1NCc1ccncc1)C1CCCC1 (centres unmarked) [Compound 123, N-(1-Cyclopentyl-ethoxy)-2-[(pyridin-4-ylmethyl)-amino]-benzamide] | 31.6
42 | O=C(NOCc1cc(Cl)cc(Cl)c1)c1ccccc1NCc1ccncc1 [Compound 17, N-(3,5-Dichloro-benzyloxy)-2-[(pyridin-4-ylmethyl)-amino]-benzamide] | 63.1
43 | O=C(NOCC1CCOCC1)c1ccccc1NCc1ccncc1 [Compound 141, 2-[(Pyridin-4-ylmethyl)-amino]-N-(tetrahydro-pyran-4-ylmethoxy)-benzamide] | 50.1
44 | C=C(C)C(=O)OCCNC(=O)Nc1cc(CNc2ccccc2C(=O)NOCC2CCCC2)ccn1 [compound 219] | 39.8
